The text below walks through data of patent publication US9023848B2 (Bionomics Limited, priority 2012, dated 2015).

Each structure is given as a SMILES string. ≈ marks a conversion by molar mass, not a printed value.

Data set [1] has as its system mice. Briefly: Light Dark Box test (anxiolytic effect). It is filed as in vivo. Particulars: per os 1 hour before the test. The text has this: The light dark paradigm is based on a conflict between the innate aversion of rodents to brightly illuminated areas and on the spontaneous exploratory behaviour of the mice. If given a choice between a large brightly compartment versus a small dark compartment they spontaneously prefer the dark part.
The apparatus consists of two PVC (polyvinylchloride) boxes (19×19×15 cm) covered with Plexiglas. One of these boxes is darkened. The other box is illuminated by 100 W desk lamp placed 15 cm above and providing an illumination of about 4400 Lux. An opaque plastic tunnel (5×7×10 cm) separates the dark box from the illuminated one.
Animals were placed individually in the lit box, with head directed towards the tunnel. The time spent in the lit box and the number of transitions between the two boxes was recorded over a 5 min period after the first entry of the animal in the dark box. The total walked distance in the lit box was also recorded. Animals scored without entry into the […] were excluded from the analysis.
(§1) Test compound was prepared in aqueous vehicle containing 0.5% w/v hydroxypropylmethyl cellulose, 0.5% v/v benzyl alcohol and 0.4% v/v Tween 80. It was administrated per os 1 hour before the implementation of the test.

The subject of the next data set is cortical neurons. Briefly: Neurite outgrowth assay. The data set is classed as cell-based. Particulars: rat cortical neurons, 3 days exposure, tested at 1 nM, 10 nM and 100 nM. The procedure:
Female rats of 17 days gestation were killed by cervical dislocation and the foetuses were removed from the uterus. Their brains were placed in ice-cold medium of Leibovitz (L15, Gibco, Fisher bioblock, France). Cortex were dissected and meninges were carefully removed. The cortical neurons were dissociated by trypsinization for 30 min at 37° C. (trypsin-EDTA Gibco) in presence of 0.1 mg/ml DNAse I (Roche, France). The reaction was stopped by addition of Dulbecco's Modified Eagle Medium (DMEM; Gibco) with 10% of fetal bovine serum (FBS; Gibco). The suspension was triturated with a 10-ml pipette and using a 21G needle and syringe, and centrifuged at 350×g for 10 min at room temperature. The pellet of dissociated cells was resuspended in medium consisting of Neurobasal (Gibco) supplemented with 2% B27 supplement (Gibco), 0.5 mM L-Glutamine (Gibco), an antibiotic-antimicotic mixture. Viable cells were counted in a Neubauer cytometer using the trypan blue exclusion test (Sigma). Cells were seeded on the basis of 30000 cells per Petri dish (ø35 mm, Nunc) precoated with poly-L-lysine. […]
A global analysis of the data was performed using a one way analysis of variance (ANOVA), followed by Fisher's Protected Least Significant Difference when applicable. […] All results were expressed as mean±sem. […]

A short description of a further data set: logD7.4. It is filed as physicochemical. Particulars: pH 7.4.
Data set [2] concerns mice. Briefly: Marble Burying. The data set is classed as in vivo. Particulars: per os 1 hour before the test.
Text: The Marble Burying test is used as a model for both anxiety and obsessive compulsive disorders. Mice have a natural tendency to bury marbles under the bedding when placed in a cage with rows of evenly spaced marbles on the floor. Suppression of this spontaneous burying has been used as a measure of anxiolytic drug action. Mice pre-treated with benzodiazepines and different classes of antidepressants bury less marbles when compared to the control mice
The apparatus consists of transparent polycarbonate cages (30 cm×18 cm×19 cm) containing a 5 cm layer of fine sawdust bedding and 20 glass marbles (diameter: 1.5 cm) spaced evenly along the walls of the cage. Each animal is placed individually in the cage where it remains for a 20 min test session. On termination of the test session the animals are removed from the cage and the number of marbles at least two-thirds buried in the sawdust is recorded.
as §1

The nature of a further data set: Kinetic solubility. The data set is classed as physicochemical. Particulars: kinetic from dmso stock.
Data set [3] deals with mice. Description: Modified Open Field (Dark), sedative or stimulating effect. Particulars: tested at 5-100 mg/kg, per os 1 hour before the test. The data set is classed as in vivo.
Text: The open field (dark) is used to measure the spontaneous motor activity of mice in a quiet, dark environment. This system is useful for discriminating the sedating or stimulating properties of test compounds on spontaneous locomotion and can thus provide a preliminary indication of potentially adverse effects such as sedation.
The apparatus is an open plexiglass cage (52×52 cm) with 40 cm walls. The animal's movements are tracked by a computerised video tracking system, consisting of an overhead camera, diode sensors placed underneath the floor of the cage, computer and video analyser software (ViewPoint, France). The video camera is placed at 2.50 m above the cage and connected to the computer via a video capture card (Pinnacle Systems, France). The video tracking system is set in a way that the floor of the OF is divided into nine equal squares. The total number of crossed squares and the total walked distance are recorded.
Each animal is singly placed in a corner of the apparatus and its locomotor activity is automatically recorded over a period of 20 minutes.
The apparatus is cleaned between each animal with alcohol (70%).
as §1

In the next data set the test system is rat. Briefly: Elevated Plus Maze. It is filed as in vivo. Particulars: per os 1 hour before the test. From the text: The Elevated Plus Maze (EPM) situation rests on the conflict between the innate tendencies of rodents to explore novel environments and avoid open and brightly lit areas. In this task the mouse is placed in the centre of the maze. From here it can walk down any of four runways. Two of the arms are well lit and open, and the other two are enclosed and dimly lit. Mice prefer the closed arms but will venture out into the open arms. The amount of time spent in the open arms and the number of times the mice enter the open arms are recorded. The total walked distance in the open arms is also recorded. “Anxious” mice will spend little time in the open arms and make very few entries into the open arms.
The apparatus is made of polyvinylchloride materials and consists of four equal exploratory arms (45×10 cm) which are all interconnected by a small platform (10×10 cm). Two arms are open and two others are closed with walls (30 cm high). The apparatus is placed 66 cm above the floor. A videotracking system is used to record the test (ViewPoint, France). […]
A trial consists of placing an animal on the central platform facing a closed arm. The number of entries and the duration spent in open arms are automatically recorded by a videotrack system during an 5 minutes period. […]

Data set [4] has as its system mice. Briefly: Forced Swim Test (antidepressant properties). It is filed as in vivo. Particulars: per os 1 hour before the test.
Text: The forced swim test is the most widely used paradigm for the evaluation of potential antidepressant effect of drugs. Animals placed in a container filled with water show periods of increased swimming activity and periods of relative immobility. Immobile posture reflects a state of tiredness, fatigue, reduced stamina or a lowered mood (hopelessness) similar to the core symptoms observed in depressed patients and in individuals under intense stress. […] The test has some predictive value for anti-depressant drugs. The apparatus consists of a glass cylinder (height 35 cm; diameter 24 cm) filled with water (depth: 25 cm, temperature: 25±1° C.).
as §1

In general, logD refers to the decadic logarithm of the distribution of all forms, ionised or not, between an organic phase and buffer at a given pH. The kinetic solubility is the concentration staying in solution when a stock, usually in DMSO, is diluted into the medium. For `Cc1nc2ccc(NC3Cc4ccccc4C3)cc2c(-c2ccccc2)c1C(=O)O` [Example 1, 6-(2,3-dihydro-1H-inden-2-ylamino)-2-methyl-4-phenylquinoline-3-carboxylic acid], in the data set with mice [1], the “Light Dark Box MED (Minimum Effective Dose)” value is given as “MED 0.1 mg/kg”. Besides, in the data set on cortical neurons, the “Neurite outgrowth: significant effect at concentrations” value is given as “≦100 nM”. The same compound came in with a log distribution coefficient (logD) in the data set “logD7.4” of 2. Moreover, in the data set on mice [2], the “Marble Burying MED (Minimum Effective Dose)” value is “MED 0.1 mg/kg”. In addition, the kinetic solubility in the data set “Kinetic solubility” (pH 2, simulated gastric fluid) was 25 to 50 µg/mL (≈ 63.4 to 127 µM); in the data set “Kinetic solubility” (pH 6.5, aqueous buffer) it was 50 to 100 µg/mL (≈ 127 to 254 µM). In addition, in the data set with mice [3], the “Open Field (Dark) sedation” value is given as “No Sedation”. Also, the “Elevated Plus Maze MED (Minimum Effective Dose)” value in the data set with rat is “MED 0.1 mg/kg”. Moreover, the “Forced Swim Test MED (Minimum Effective Dose)” value with mice [4] was “MED 10 mg/kg”.
As for `Cc1nc2ccc(NC3Cc4ccccc4C3)cc2c(-c2ccccc2)c1C(=O)N1CCOCC1` [Example 2], the “Light Dark Box MED (Minimum Effective Dose)” value with mice [1] is given as “MED 10 mg/kg”.
